Measured values published in ChEMBL document CHEMBL4130640, “Optimizing a Weakly Binding Fragment into a Potent RORγt Inverse Agonist with Efficacy in an in Vivo Inflammation Model” (J Med Chem, 2018).
Values after ≈ are worked out from the molar mass of the structure shown.

How the values were obtained:
[1] = pampa
physchem = details: aqueous solution, pH 6.8

For C[C@H](Oc1ncc(NC(=O)Cc2ccncc2)cc1Cl)c1ccccc1, the “log(permeability)” value [1] was -3.7 and the solubility thermodynamic (physchem) was 28 µM (≈ 10.3 µg/mL).
